Test results taken from PubChem BioAssay AID1259407 (Chemical Carcinogenesis Research Information System (CCRIS), 2018).
The source made the active and inactive calls. The rule behind the calls is not given here.

Test system: CCRIS mutagenicity, Ames/micronucleus/aberration tests
Experiment: CCRIS mutagenicity studies

CCC1CO1 (configuration not stated)
mutagenic call (End Point: IN VITRO CHROMOSOMAL ABERRATIONS, Test System: CHO CELLS, Metabolic Activation: NONE): inactive; negative; authors report a positive response at the highest dose but few cells c | mutagenic call (End Point: IN VITRO CHROMOSOMAL ABERRATIONS, Test System: HUMAN PERIPHERAL LYMPHOCYTES, Metabolic Activation: NONE, Method: FISH (DUAL COLOR FOR CHROMOSOMES 7, 8, 12 AND X)): active; positive (hyperdiploidy of chromosomes 12 and x) | mutagenic call (End Point: IN VITRO MICRONUCLEUS, Test System: HUMAN PERIPHERAL LYMPHOCYTES, Metabolic Activation: NONE): active; positive | mutagenic call (Test System: AMES SALMONELLA TYPHIMURIUM, Strain/Indicator: TA98, Metabolic Activation: HAMSTER, LIVER, S-9, AROCLOR 1254, Method: PREINCUBATION): inactive; negative | mutagenic call (Test System: AMES SALMONELLA TYPHIMURIUM, Strain/Indicator: TA98, Metabolic Activation: NONE, Method: FLUCTUATION (MICROTITER)): inactive; negative | mutagenic call (Test System: AMES SALMONELLA TYPHIMURIUM, Strain/Indicator: TA98, Metabolic Activation: NONE, Method: PREINCUBATION): inactive; negative | mutagenic call (Test System: AMES SALMONELLA TYPHIMURIUM, Strain/Indicator: TA98, Metabolic Activation: NONE, Method: STANDARD PLATE): inactive; negative | mutagenic call (Test System: AMES SALMONELLA TYPHIMURIUM, Strain/Indicator: TA98, Metabolic Activation: RAT LIVER S-9, AROCLOR 1254, Method: FLUCTUATION (MICROTITER)): inactive; negative | mutagenic call (Test System: AMES SALMONELLA TYPHIMURIUM, Strain/Indicator: TA98, Metabolic Activation: RAT, LIVER, S-9, AROCLOR 1254, Method: PREINCUBATION): inactive; negative | mutagenic call (Test System: AMES SALMONELLA TYPHIMURIUM, Strain/Indicator: TA100, Metabolic Activation: HAMSTER, LIVER, S-9, AROCLOR 1254, Method: PREINCUBATION): active; positive | mutagenic call (Test System: AMES SALMONELLA TYPHIMURIUM, Strain/Indicator: TA100, Metabolic Activation: NONE, Method: PREINCUBATION): active; positive | mutagenic call (Test System: AMES SALMONELLA TYPHIMURIUM, Strain/Indicator: TA100, Metabolic Activation: RAT, LIVER, S-9, AROCLOR 1254, Method: PREINCUBATION): active; positive | mutagenic call (Test System: AMES SALMONELLA TYPHIMURIUM, Strain/Indicator: TA1535, Metabolic Activation: HAMSTER, LIVER, S-9, AROCLOR 1254, Method: PREINCUBATION): active; positive | mutagenic call (Test System: AMES SALMONELLA TYPHIMURIUM, Strain/Indicator: TA1535, Metabolic Activation: NONE, Method: PREINCUBATION): active; positive | mutagenic call (Test System: AMES SALMONELLA TYPHIMURIUM, Strain/Indicator: TA1535, Metabolic Activation: NONE, Method: STANDARD PLATE): active; positive | mutagenic call (Test System: AMES SALMONELLA TYPHIMURIUM, Strain/Indicator: TA1535, Metabolic Activation: RAT, LIVER, S-9, AROCLOR 1254, Method: PREINCUBATION): active; positive | mutagenic call (Test System: AMES SALMONELLA TYPHIMURIUM, Strain/Indicator: TA1537, Metabolic Activation: HAMSTER, LIVER, S-9, AROCLOR 1254, Method: PREINCUBATION): inactive; negative | mutagenic call (Test System: AMES SALMONELLA TYPHIMURIUM, Strain/Indicator: TA1537, Metabolic Activation: NONE, Method: FLUCTUATION (MICROTITER)): inactive; negative | mutagenic call (Test System: AMES SALMONELLA TYPHIMURIUM, Strain/Indicator: TA1537, Metabolic Activation: NONE, Method: PREINCUBATION): inactive; negative | mutagenic call (Test System: AMES SALMONELLA TYPHIMURIUM, Strain/Indicator: TA1537, Metabolic Activation: RAT LIVER S-9, AROCLOR 1254, Method: FLUCTUATION (MICROTITER)): inactive; negative | mutagenic call (Test System: AMES SALMONELLA TYPHIMURIUM, Strain/Indicator: TA1537, Metabolic Activation: RAT, LIVER, S-9, AROCLOR 1254, Method: PREINCUBATION): inactive; negative | mutagenic call (Test System: AMES SALMONELLA TYPHIMURIUM, Strain/Indicator: TA7001, Metabolic Activation: NONE, Method: FLUCTUATION (MICROTITER)): inactive; negative | mutagenic call (Test System: AMES SALMONELLA TYPHIMURIUM, Strain/Indicator: TA7001, Metabolic Activation: RAT LIVER S-9, AROCLOR 1254, Method: FLUCTUATION (MICROTITER)): inactive; negative | mutagenic call (Test System: AMES SALMONELLA TYPHIMURIUM, Strain/Indicator: TA7002, Metabolic Activation: NONE, Method: FLUCTUATION (MICROTITER)): inactive; negative | mutagenic call (Test System: AMES SALMONELLA TYPHIMURIUM, Strain/Indicator: TA7002, Metabolic Activation: RAT LIVER S-9, AROCLOR 1254, Method: FLUCTUATION (MICROTITER)): inactive; negative | mutagenic call (Test System: AMES SALMONELLA TYPHIMURIUM, Strain/Indicator: TA7003, Metabolic Activation: NONE, Method: FLUCTUATION (MICROTITER)): inactive; negative | mutagenic call (Test System: AMES SALMONELLA TYPHIMURIUM, Strain/Indicator: TA7003, Metabolic Activation: RAT LIVER S-9, AROCLOR 1254, Method: FLUCTUATION (MICROTITER)): inactive; negative | mutagenic call (Test System: AMES SALMONELLA TYPHIMURIUM, Strain/Indicator: TA7004, Metabolic Activation: NONE, Method: FLUCTUATION (MICROTITER)): active; positive | mutagenic call (Test System: AMES SALMONELLA TYPHIMURIUM, Strain/Indicator: TA7004, Metabolic Activation: RAT LIVER S-9, AROCLOR 1254, Method: FLUCTUATION (MICROTITER)): inactive; negative | mutagenic call (Test System: AMES SALMONELLA TYPHIMURIUM, Strain/Indicator: TA7005, Metabolic Activation: NONE, Method: FLUCTUATION (MICROTITER)): inactive; negative | mutagenic call (Test System: AMES SALMONELLA TYPHIMURIUM, Strain/Indicator: TA7005, Metabolic Activation: RAT LIVER S-9, AROCLOR 1254, Method: FLUCTUATION (MICROTITER)): inactive; negative | mutagenic call (Test System: AMES SALMONELLA TYPHIMURIUM, Strain/Indicator: TA7006, Metabolic Activation: NONE, Method: FLUCTUATION (MICROTITER)): inactive; negative | mutagenic call (Test System: AMES SALMONELLA TYPHIMURIUM, Strain/Indicator: TA7006, Metabolic Activation: RAT LIVER S-9, AROCLOR 1254, Method: FLUCTUATION (MICROTITER)): inactive; negative | mutagenic call (Test System: E. COLI, Strain/Indicator: WP2 UVRA, Metabolic Activation: HAMSTER, LIVER, S-9, AROCLOR 1254, Method: PREINCUBATION): inactive; negative | mutagenic call (Test System: E. COLI, Strain/Indicator: WP2 UVRA, Metabolic Activation: HAMSTER, LIVER, S-9, AROCLOR 1254, Method: STANDARD PLATE): inactive; negative | mutagenic call (Test System: E. COLI, Strain/Indicator: WP2 UVRA, Metabolic Activation: HAMSTER, LIVER, S-9, Method: STANDARD PLATE): inactive; negative | mutagenic call (Test System: E. COLI, Strain/Indicator: WP2 UVRA, Metabolic Activation: MOUSE, LIVER, S-9, AROCLOR 1254, Method: PREINCUBATION): inactive; negative | mutagenic call (Test System: E. COLI, Strain/Indicator: WP2 UVRA, Metabolic Activation: MOUSE, LIVER, S-9, AROCLOR 1254, Method: STANDARD PLATE): inactive; negative | mutagenic call (Test System: E. COLI, Strain/Indicator: WP2 UVRA, Metabolic Activation: MOUSE, LIVER, S-9, Method: PREINCUBATION): inactive; negative | mutagenic call (Test System: E. COLI, Strain/Indicator: WP2 UVRA, Metabolic Activation: MOUSE, LIVER, S-9, Method: STANDARD PLATE): inactive; negative | mutagenic call (Test System: E. COLI, Strain/Indicator: WP2 UVRA, Metabolic Activation: NONE, Method: PREINCUBATION): inactive; negative | mutagenic call (Test System: E. COLI, Strain/Indicator: WP2 UVRA, Metabolic Activation: NONE, Method: STANDARD PLATE): inactive; negative | mutagenic call (Test System: E. COLI, Strain/Indicator: WP2 UVRA, Metabolic Activation: RAT, LIVER, S-9, AROCLOR 1254, Method: PREINCUBATION): inactive; negative | mutagenic call (Test System: E. COLI, Strain/Indicator: WP2 UVRA, Metabolic Activation: RAT, LIVER, S-9, AROCLOR 1254, Method: STANDARD PLATE): inactive; negative | mutagenic call (Test System: E. COLI, Strain/Indicator: WP2 UVRA, Metabolic Activation: RAT, LIVER, S-9, Method: PREINCUBATION): inactive; negative | mutagenic call (Test System: E. COLI, Strain/Indicator: WP2 UVRA, Metabolic Activation: RAT, LIVER, S-9, Method: STANDARD PLATE): inactive; negative

CC(=O)Nc1ccc2c(c1)Cc1cc(NC(C)=O)ccc1-2
mutagenic call (Test System: AMES SALMONELLA TYPHIMURIUM, Strain/Indicator: TA1538, Metabolic Activation: RAT, LIVER, S-9, PHENOBARBITAL, Method: STANDARD PLATE): active; positive
